Assay results published in PMC10471769, “Biochemical analysis of Komagataella phaffii oxidative folding proposes novel regulatory mechanisms of disulfide bond formation in yeast” (Scientific Reports, 2023).

Assays:
[1] = biological target: T1, monomeric K. phaffii Ero1 (Komagataella phaffii, UniProt F2QNN1, C136A); test: absorbance at […] nm after reflavination and size exclusion; format: binding; settings: stoichiometry, no affinity constant; 1:2 molar excess FAD+ overnight on ice, phosphate pH 7.0
T1 construct: His-tagged 1-384 active core, C-terminal amphipathic helix removed, monomer; E. coli BL21(DE3) with CyDisCo
T1 sequence (F2QNN1 entry or part of it C136A): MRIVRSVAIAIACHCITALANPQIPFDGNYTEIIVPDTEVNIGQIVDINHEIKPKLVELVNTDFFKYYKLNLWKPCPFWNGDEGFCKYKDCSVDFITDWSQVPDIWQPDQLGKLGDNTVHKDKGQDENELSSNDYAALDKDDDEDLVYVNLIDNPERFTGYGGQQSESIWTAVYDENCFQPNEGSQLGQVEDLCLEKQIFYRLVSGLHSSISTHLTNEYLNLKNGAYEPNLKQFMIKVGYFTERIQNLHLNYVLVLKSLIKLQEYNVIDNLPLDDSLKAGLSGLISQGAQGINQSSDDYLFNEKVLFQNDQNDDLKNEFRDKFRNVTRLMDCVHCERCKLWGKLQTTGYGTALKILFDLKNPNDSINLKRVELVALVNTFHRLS

[2] = biological target: T2, K. phaffii Ero1-Pdi1 complex (wild type) (Komagataella phaffii, UniProt F2QNN1); test: as above; format: binding; settings: stoichiometry, no affinity constant; 1:2 molar excess FAD+ overnight on ice, phosphate pH 7.0
T2 construct: 1:1 disulfide-linked heterodimer (Ero1 Cys136-Pdi1 Cys404); His-tagged Ero1 1-384 core without C-terminal amphipathic helix (45 kDa) plus Pdi1 (56 kDa); E. coli BL21(DE3) with customized CyDisCo; with Protein disulfide-isomerase
T2 sequence (F2QNN1 entry or part of it): as the sequence (F2QNN1 entry or part of it C136A) above, with A136C counted along it
T2 sequence (F2QY05 entry or part of it, further chain): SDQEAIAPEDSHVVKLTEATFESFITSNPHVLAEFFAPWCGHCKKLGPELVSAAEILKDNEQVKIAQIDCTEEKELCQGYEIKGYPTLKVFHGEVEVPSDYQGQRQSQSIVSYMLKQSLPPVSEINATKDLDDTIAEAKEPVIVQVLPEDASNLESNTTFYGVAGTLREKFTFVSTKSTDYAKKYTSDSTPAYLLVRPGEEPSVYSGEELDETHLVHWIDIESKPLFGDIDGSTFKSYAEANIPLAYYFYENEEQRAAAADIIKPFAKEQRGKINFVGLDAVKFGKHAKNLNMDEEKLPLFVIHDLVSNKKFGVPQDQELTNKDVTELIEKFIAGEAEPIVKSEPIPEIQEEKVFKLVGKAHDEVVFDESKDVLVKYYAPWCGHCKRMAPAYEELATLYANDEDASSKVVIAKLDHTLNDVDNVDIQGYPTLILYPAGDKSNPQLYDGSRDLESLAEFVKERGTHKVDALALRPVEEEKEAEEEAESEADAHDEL

Cc1cc2nc3c(=O)[nH]c(=O)nc-3n(C[C@H](O)[C@H](O)[C@H](O)COP(=O)(O)OP(=O)(O)OC[C@H]3O[C@@H](n4cnc5c(N)ncnc54)[C@H](O)[C@@H]3O)c2cc1C [FAD+]
FAD+ molecules per monomer [1]: 0.85 ± 0.04 molecules per monomer | FAD+ molecules per complex [2]: 0.93 ± 0.05 molecules per complex
